Structures can show the parent of a compound that is named as a salt. Where two headings read alike, the source gives them in different places.
Columns and labels:
[1] = test system: H5N1 IAV (A/Duck/Guangdong/99); assay: microbe, parasite or virus in culture; type: cell-based, influenza A virus
A549 cells = assay: MTT cytotoxicity assay; details: for CC50: MTT, 24 h of compound treatment
[2] = test system: PR8 (H1N1) IAV (A/Puerto Rico/8/34); assay: microbe, parasite or virus in culture; type: cell-based; details: Influenza A virus, A549
[3] = test system: H9N2 IAV (A/Chicken/Guangdong/16/1996); assay: microbe, parasite or virus in culture; type: cell-based; details: Influenza A virus, H9N2, A549, in Gallus gallus
[4] = test system: H3N2 IAV (A/Guangdong/Dongguan/1100/2006); assay: microbe, parasite or virus in culture; type: cell-based; details: Influenza A virus, H3N2, A549
[5] = test system: IAV (H1N1, H5N1, H9N2 and H3N2); assay: microbe, parasite or virus in culture; type: cell-based, influenza A virus
H5N1 IAV [6] = type: cell-based, influenza A virus
H5N1 IAV [7] = type: cell-based, influenza A virus; remark: listed apart in the source
H5N1 IAV [8] = type: cell-based, influenza A virus; remark: listed apart in the source
[9] = test system: A/Duck/Guangdong/99(H5N1) HA; type: cell-based, influenza A virus
[10] = molecular target: Recombinant influenza HA protein from A/Vietnam/1203/2004 (H5N1) (Influenza A virus (A/Vietnam/1203/2004(H5N1)), UniProt Q5EP31); assay: biochemical; type: binding
[11] = molecular target: FKBP12 (FK506 binding protein 1A, 12 kDa) (Homo sapiens, UniProt P62942)
[12] = test system: H5N1 IAV HA-induced hemolysis; assay: microbe, parasite or virus in culture; type: cell-based; details: Influenza A virus, H5N1, in Gallus gallus, pH 5.2, read-out: IC50 hemolysis inhibition
H5N1 IAV [13] = type: cell-based, influenza A virus; remark: listed apart in the source

Sequence of FKBP12 (FK506 binding protein 1A, 12 kDa) (P62942 whole entry): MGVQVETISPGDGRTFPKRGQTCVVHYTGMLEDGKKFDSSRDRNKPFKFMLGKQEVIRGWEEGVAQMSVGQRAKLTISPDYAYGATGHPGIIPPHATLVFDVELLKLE

CC1(C)CC[C@]2(C(=O)O)CC[C@]3(C)C(=CC[C@@H]4[C@@]5(C)CC[C@H](O)C(C)(C)[C@@H]5CC[C@]43C)[C@@H]2C1 [OA-0, oleanolic acid]
EC50 [1]: 14.2 ± 1.9 µM | SI (selectivity index), ratio of CC50 to EC50 [1]: 4.7 | EC50 ([1]; Influenza A virus, H5N1, A549): ≤ 14.2 µM | CC50 (A549 cells): 67.4 ± 4.8 µM | CC50 (A549 cells; listed as oleanolic acid): ≥ 31.1 µM

CNC(=O)[C@]12CCC(C)(C)C[C@H]1C1=CC[C@@H]3[C@@]4(C)CC[C@H](O[C@@H]5O[C@H](CO)[C@@H](O[C@@H]6O[C@@H](C)[C@H](O)[C@@H](O)[C@H]6O)[C@H](O)[C@H]5O[C@@H]5O[C@@H](C)[C@H](O)[C@@H](O)[C@H]5O)C(C)(C)[C@@H]4CC[C@@]3(C)[C@]1(C)CC2 [OA-10]
SI (selectivity index), ratio of CC50 to EC50 [1]: >45 | EC50 ([1]; Influenza A virus, H5N1, A549): 14 ± 2.3 µM | EC50 [2]: 6.7 ± 1.4 µM | EC50 [3]: 15.3 ± 2.5 µM | EC50 [4]: 19.6 ± 3.7 µM | progeny virus titer on PR8, H9N2 and H3N2 infection [5]: reduced progeny virus titer | EC50 ([5]; Influenza A virus, H1N1|H3N2|H5N1|H9N2, A549, read-out: EC50 range across IAV subtypes): 6.7 to 19.6 µM | H5N1 IAV NP RNA levels (H5N1 IAV [6]): significantly inhibited | reduction in progeny virus production (H5N1 IAV [6]): 1.8 log | effect on IAV infection after co-incubation at 4 °C (virus binding) (H5N1 IAV [7]): did not affect IAV infection | effect of combination on progeny virus titer and NP production (H5N1 IAV [8]): synergistic effect | progeny virus yield and NP protein expression, co-treatment (H5N1 IAV [8]): mild but significant reduction | progeny virus yield and viral NP production, pre-treatment (H5N1 IAV [8]): did not reduce progeny virus yield and viral NP production | progeny virus yield, post-treatment (H5N1 IAV [8]): one log reduction | inhibition of HA adsorption to chicken RBCs [9]: did not inhibit HA adsorption to chicken RBCs | inhibition of H5N1 virus adsorption to chicken RBCs ([9]; concentrations ≥40 µM): partially blocked | Kd [10]: 2.98 pM | interaction with negative control protein [11]: did not interact | IC50 [12]: 26 µM | cytotoxicity at concentrations ≤ 80 µM (A549 cells; after 24, 48 or 72 h of treatment): No obvious cytotoxicity

CCOC(=O)c1c(CSc2ccccc2)n(C)c2cc(Br)c(O)c(CN(C)C)c12 [arbidol, Arbidol hydrochloride, reference compound]
IC50 [12]: 51 µM

CCC(CC)[C@H](NC(C)=O)[C@@H]1[C@H](O)[C@@H](C(=O)O)C[C@H]1N=C(N)N [peramivir, Peramivir, reference compound]
inhibition on IAV infections (positive control) (H5N1 IAV [6]): significant inhibition | progeny virus yield and NP protein expression, co-treatment (H5N1 IAV [8]): more significant inhibition | progeny virus yield, post-treatment (H5N1 IAV [8]): more significant inhibition

NC(=O)c1ncn([C@@H]2O[C@H](CO)[C@@H](O)[C@H]2O)n1 [ribavirin, Ribavirin hydrochloride, reference compound]
progeny virus yield, post-treatment (H5N1 IAV [8]): inhibition only in the post-treatment mode | inhibition of viral replication, compound added after 4 hpi (H5N1 IAV [13]): no inhibition
